biological target: ASK1 (Homo sapiens (Human), UniProt Q99683); experiment: ASK1 kinase inhibition, HTRF KinEASE Assay System (TR-FRET); format: biochemical; settings: 5 nM ASK1 kinase, 1 uM STK3 peptide substrate, 100 uM ATP, 3 hours
Description: The ability (IC50) of compounds to inhibit ASK1 kinase activity was determined by HTRF® KinEASE™ Assay System.
ASK1 was purchased from Thermofisher (Catalogue # PV401.1), ATP was purchased from Sigma (Catalogue # A7699), HTRF® KinEASE™ Assay System was obtained from Cisbio (Bedford, Mass). ½ Area plate was purchased from Perkin Elmer (Catalogue # #6005560). HTRF® KinEASE™-STK is a generic method for measuring serine/threonine kinase activities using a time-resolved fluorescence resonance energy transfer (TR-FRET) immunoassay. The IC50 value for each compound was determined in the presence of compound (various concentration from 0 to 10 μM) and a fixed amount of ATP and peptide substrates. The test compound, luM STK3 peptide substrate, and 5 nM of ASK1 kinase are incubated with kinase reaction buffer containing 50 mM HEPES pH 7.5, 0.01% BRIJ-35, 10 mM MgCl2, and 1 mM EGTA for 30 minutes. 100 uM ATP is added to start kinase reaction and incubated for 3 hours. The STK3-antibody labeled with Eu^3+-Cryptate and 125 nM streptavidin-XL665 are mixed in a single addition with stop reagents provided by the Cisbio kit used to stop the kinase reaction. Fluorescence is detected using an Envision Multilabeled 2014 reader from PerkinElmer. The Fluorescence is measured at 615 nm (Cryptate) and 665 nm (XL665) and a ratio of 665 nm/615 nm is calculated for each well. The resulting TR-FRET is proportional to the phosphorylation level. Staurosporine was used as the positive control. IC50 was determined by XLfit 5.3.
By using above method, the inhibition of ASK1 was tested for the compound of formula (I). IC50 ranges are as follows: A<1 nM; 1 nM<B<10 nM; 10 nM<C<100 nM; 100 nM<D

ASK1, sequence (Q99683 whole entry): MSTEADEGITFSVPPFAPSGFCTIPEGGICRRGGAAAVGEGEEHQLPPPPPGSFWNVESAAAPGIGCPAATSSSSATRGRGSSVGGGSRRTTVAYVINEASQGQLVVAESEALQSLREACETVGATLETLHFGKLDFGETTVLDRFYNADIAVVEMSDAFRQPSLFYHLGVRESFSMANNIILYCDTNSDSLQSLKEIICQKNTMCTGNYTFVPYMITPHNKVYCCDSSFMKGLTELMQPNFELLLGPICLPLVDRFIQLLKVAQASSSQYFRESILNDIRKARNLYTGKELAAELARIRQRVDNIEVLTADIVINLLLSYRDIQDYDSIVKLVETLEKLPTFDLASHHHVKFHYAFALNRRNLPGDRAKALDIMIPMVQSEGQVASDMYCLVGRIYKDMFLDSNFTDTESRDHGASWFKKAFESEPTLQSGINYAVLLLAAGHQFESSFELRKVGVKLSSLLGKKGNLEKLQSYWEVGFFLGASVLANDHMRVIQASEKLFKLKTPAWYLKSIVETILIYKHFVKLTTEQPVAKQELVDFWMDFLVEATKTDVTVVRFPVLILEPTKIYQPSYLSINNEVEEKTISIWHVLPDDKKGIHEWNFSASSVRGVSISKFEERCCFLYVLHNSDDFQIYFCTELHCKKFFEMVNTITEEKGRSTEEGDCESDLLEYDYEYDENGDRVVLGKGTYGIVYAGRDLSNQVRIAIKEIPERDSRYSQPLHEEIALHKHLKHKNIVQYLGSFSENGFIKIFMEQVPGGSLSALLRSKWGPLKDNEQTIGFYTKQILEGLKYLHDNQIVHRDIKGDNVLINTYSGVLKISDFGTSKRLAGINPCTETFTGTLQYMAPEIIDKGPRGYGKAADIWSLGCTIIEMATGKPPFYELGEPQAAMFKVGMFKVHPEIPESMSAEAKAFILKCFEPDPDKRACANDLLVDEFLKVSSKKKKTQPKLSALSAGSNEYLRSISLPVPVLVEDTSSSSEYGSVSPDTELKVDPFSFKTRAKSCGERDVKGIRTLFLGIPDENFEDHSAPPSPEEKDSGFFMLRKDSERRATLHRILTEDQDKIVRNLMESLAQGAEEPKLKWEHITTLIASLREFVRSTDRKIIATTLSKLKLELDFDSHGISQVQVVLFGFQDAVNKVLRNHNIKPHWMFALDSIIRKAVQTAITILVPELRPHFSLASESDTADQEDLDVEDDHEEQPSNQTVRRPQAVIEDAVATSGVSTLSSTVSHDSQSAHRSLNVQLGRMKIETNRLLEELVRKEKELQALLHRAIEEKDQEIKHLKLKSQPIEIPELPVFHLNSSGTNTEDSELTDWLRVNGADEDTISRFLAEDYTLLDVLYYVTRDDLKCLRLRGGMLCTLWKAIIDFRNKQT

IC50 [nM]	SMILES
1 to 10	COc1cc(C)c(-n2cnc(C3CC3)c2)cc1C(=O)Nc1cccc(-c2nnnn2[C@H](C)CO)n1 [Example 61a]
1 to 10	Cc1cc(F)c(C(=O)Nc2cccc(-c3nnnn3C(C)C)n2)cc1-n1cnc(C(C)(C)C)c1 [Example 29a]
10 to 100	Cc1cc(F)c(C(=O)Nc2cccc(-c3nnnn3CC(C)C)n2)cc1-n1cnc(C2CC2)c1 [Example 9a]
1 to 10	Cc1cc(F)c(C(=O)Nc2cccc(-c3nnnn3[C@H](C)CCO)n2)cc1-n1cnc(C2CC2)c1 [Example 22a]
1 to 10	Cc1cnc(C(=O)Nc2cccc(-n3nnnc3C(C)C)n2)cc1-n1cnc(C(C)(C)C)c1 [Example 5b]
1 to 10	Cc1cnc(C(=O)Nc2cccc(-c3nnnn3[C@H](C)CO)n2)cc1-n1cnc(C2CC2)c1 [Example 49a]
1 to 10	CC(C)n1nnnc1-c1nc(NC(=O)c2cc(-n3cnc(C4CC4)c3)c(N3CCCC3)cn2)cs1 [Example 42a]
10 to 100	Cc1cc(F)c(C(=O)Nc2ccnc(-c3nnnn3C(C)C)n2)cc1-n1cnc(C2CC2)c1 [Example 34a]
1 to 10	Cc1cc(F)c(C(=O)Nc2cccc(-c3nnnn3[C@@H](C)CF)n2)cc1-n1cnc(C2CC2)c1 [Example 15a]
1 to 10	Cc1cc(F)c(C(=O)Nc2cccc(-c3nnnn3CC(C)(C)C)n2)cc1-n1cnc(C2CC2)c1 [Example 13a]
1 to 10	CC(C)n1nnnc1-c1cccc(NC(=O)c2cc(-n3cnc(C4CC4)c3)c(C(F)(F)F)cn2)n1 [Example 57a]
1 to 10	Cc1cc(F)c(C(=O)Nc2cccc(-c3nnnn3[C@H](C)CO)n2)cc1-n1cnc(C(F)(F)F)c1 [Example 28a]
1 to 10	Cc1cc(F)c(C(=O)Nc2cccc(-c3nnnn3C3CC(F)(F)C3)n2)cc1-n1cnc(C2CC2)c1 [Example 11a]
1 to 10	Cc1cnc(C(=O)Nc2cccc(-c3nnnn3[C@H](C)CO)n2)cc1-n1cnc(C(C)(C)C)c1 [Example 53a]
1 to 10	COc1cc(C)c(-n2cnc(C3CC3)c2)cc1C(=O)Nc1cccc(-c2nnnn2C(C)C)n1 [Example 60a]
1 to 10	CC(C)n1nnnc1-c1cccc(NC(=O)c2cc(-n3cnc(C4CC4)c3)c(C(F)F)cn2)n1 [Example 54a]
10 to 100	Cc1cc(F)c(C(=O)Nc2cccc(-c3nnnn3C(C)C(F)(F)F)n2)cc1-n1cnc(C2CC2)c1 (stereo not shown) [Example 16a]
1 to 10	Cc1cnc(C(=O)Nc2cccc(-c3nnnn3[C@H](C)CO)n2)cc1-n1cnc(C(F)(F)F)c1 [Example 51a]
1 to 10	Cc1cc(F)c(C(=O)Nc2cccc(-c3nnnn3[C@H](C)CF)n2)cc1-n1cnc(C2CC2)c1 [Example 14a]

— patent US10683279B2, “Apoptosis signal-regulating kinase 1 inhibitors and methods of use thereof” (Enanta Pharmaceuticals, Inc., priority 2017, dated 2020)
